For assay [1], the system named is macrophages in co-culture with fibroblasts. Nature of the assay: Fibroblast-macrophage coculture with wound exudate (FACS, ELISA). Type of assay: cell-based, human. The note with it: wound exudate #78; for percentage of live cells in the FACS CD45-gate (macrophages): FIG. 17 A; for macrophage M2 marker CD206: FIG. 17 B; for proinflammatory cytokine IL-1α induced by wound exudate: FIG. 17 C. How it is done: CD14^+ monocytes, isolated from PBMC of healthy donors by magnetic bead separation were incubated either alone or in the presence of primary human dermal fibroblasts (CellNTec) or fibroblast-derived matrices (FDM). FDM had been generated from primary human dermal fibroblasts by a 3-week incubation with the growth supplements vitamin C or insulin and EGF (vitamin C: 2-phospho-L-ascorbic acid trisodium salt, 100 μg/ml; human EGF, 5 ng/ml; human insulin, 5 μg/ml). Alternatively, fibroblast monolayer cultures can be used as well. After 4 days to a week to allow for macrophage differentiation in the presence or absence of M-CSF (25 ng/ml), the cultures were stimulated overnight with graded concentrations of test compounds in the absence or presence of various dilutions of sterile-filtered WE. IFN-g (50 ng/ml), LPS (100 ng/ml) and IL-4 (25 ng/ml) or combinations thereof served as controls for M1 and M2 macrophage induction. For negative control samples, medium was added instead of specific stimuli. WE were added to the culture medium for overnight stimulation at dilutions ranging from 1:25 to 1:100.
Supernatants were harvested and frozen for cytokine determination by ELISA, and cells were harvested and subjected to FACS analysis, gating on the monocyte population. Geometric means or mean fluorescence intensities (MFI) were used to quantify surface marker expression.
ELISA: CXCL10 and IL-23p19 for M1 macrophages and CCL22 and CCL18 as M2 macrophage markers, IL-1alpha, IL-1beta and TNF-alpha as pro-inflammatory markers indicative of an M1 phenotype.
Cells were harvested and resuspended in FACS buffer (PBS containing 2% FCS). Unspecific antibody binding was prevented by incubation with human Trustain FCR blocking solution (Biolegend, #422302) on ice for 10 minutes. The following fluorchrome-conjugated antibodies from eBioscience (now ThermoFisher Scientific) were used to detect specific surface markers by staining on ice for 30 minutes: CD38-PerCPeFluor710 (#46-0388-42), CD197-APC (#17-1979-42), CD206-AF488 (#53-2069-42), CD209-PerCP Cy5.5 (#45-2099-42). Co-staining with CD45 eFluor (#506 69-0459-42) was used to distinguish macrophages from primary human fibroblasts when analyzed from co-cultures. After washing cells with FACS buffer, they were fixed with 1% paraformaldehyde in PBS and stored at 4° C. in the dark until data were acquired on a Gallios flow cytometer from Beckman Coulter and analyzed with the Kaluza analysis software 1.3.
For orientation: In an ELISA, binding on a coated surface is turned into a signal by an enzyme label.

Assay [2] has as its system IL-1ß secretion by primary human dermal fibroblasts. Nature of the assay: IL-1ß secretion in the HDF proliferation assay with wound exudate (ELISA). Format: cell-based. The note with it: FIG. 20. On the procedure:
At the end of the 72-hour incubation period, supernatants were removed for the determination of IL-1ß, and the cells were fixed with 4% paraformaldehyde (Morphisto) for 15 minutes at room temperature and washed 3 times with PBS. A control plate was fixed after the overnight adherence of the cells (day 1) to determine the starting cell number.
IL-1ß levels were determined with a commercial ELISA kit. The amount of IL-1ß contained in the wound exudate added to the cells was subtracted from the total IL-ß in the supernatants in order to determine the cytokine secreted by the cells.

Assay [3] concerns wound exudate-induced pig wounds. Nature of the assay: Porcine model of delayed wound healing induced by human wound exudates. Format: in vivo. The note with it: veliparib 10 mM, talazoparib 1 mM. The source says:
The pig is regarded as the species with the highest correlation to man in skin anatomy and physiology. Pig wounds tend to heal by a combination of granulation tissue formation and contraction, similar to human wounds, and porcine wound healing studies show a high concordance with human studies. We developed a chronically inflamed porcine wound model. Acute pig wounds were stimulated by a combination of human chronic wound fluids and the toll-like receptors 7 and 8 (TLR7,8) agonist resiquimod (R848).
Female domestic white pigs at the age of 10-12 weeks and a body weight of approximately 12 kg were sedated with 20 mg Ketamin/2 mg Xylacin i.m. followed by inhalation anesthesia via Isofluran. Immediately after induction of anesthesia, a fentanyl transdermal patch (50 μg/h) was applied to control postsurgical pain. The fentanyl patch was replaced daily for the first 3 days after surgery and afterwards only when signs of pain were apparent. Before wounding, the back hair of the animals was clipped and the skin was cleaned with Braunol and disinfected with Skinsept. Then a total of 24 full-thickness excisional wounds per animal were applied using a 6 mm disposable biopsy punch. Immediately after wounding 50 μl of a 0.05% R848 gel was applied topically to the wounds which were covered with dressing (Mölnlycke Health Care AB, Sweden). 6 hours later, the wounds were treated with 3% HPMC (hydroxypropyl methylcellulose)-gellified human wound exudates or human serum as controls. Wound exudates had been harvested from negative pressure wound therapy systems used to treat patients diagnosed with chronic ulcers. Induction of wound inflammation by R848 and wound exudate was carried out for a total of 5 consecutive days.
From day 6 to day 10, veliparib and talazoparib at 10 mM and 1 mM, respectively, were dissolved in vehicle (50% propylene glycol/47.5% water/0.5% Tween 80/2.0% HPMC), applied to the wounds once daily and covered with dressing. Until day 12, wounds and surrounding skin were clinically examined once daily, upon dressing change, and observed changes were scored on a scale from 0-3. The following criteria were used:
The total achievable score (non-healing) is 19. Healing is associated with low scores.

Assay [4] has as its system primary human dermal fibroblasts (HDF). Nature of the assay: Fibroblast-derived matrix (FDM) formation assay (3D) with wound exudate. Type of assay: cell-based. The note with it: for 3D fibroblast culture (FDM formation), effect of PARP inhibitors: FIG. 7, WE from patient #78. On the procedure: HDF cells were seeded at 5000 cells/well on day −3 into 96-well tissue culture plates (1250 cells/well for 384-well plates), which had been pre-coated for 1 hour at 37° C. with 0.2% gelatin solution (Sigma). When the cells reached confluence (=day 0), a matrix promoting supplement (vitamin C: 2-phospho-L-ascorbic acid trisodium salt, 100 μg/ml; Sigma) was added together with test samples containing PDGF-BB, TGF-ß1 or graded concentrations of compounds −/+WE as described for the HDF proliferation assay. After 4 days, medium was replaced by fresh vitamin C—and stimulus—as well as compound-containing medium, maintaining the conditions initiated on day 0. TGF-ß1 and PDGF-BB were included as positive controls to promote FDM formation and cell growth, respectively. After a total incubation time of 8 days, FDM production was measured in fixed cultures via SRB staining and evaluated as described above. In some cases, the experiment was stopped and evaluated already on day 4.
Low molecular weight compounds (see list in Table 1) were dissolved in DMSO (Bioreagent for cell culture, Sigma) at 10 mM or 100 mM and diluted at least 1:1000 in medium for cellular assays (final DMSO concentration ≤0.1%).
Cells were incubated with compounds for 72 hours in proliferation assays and up to 8 days for FDM assay (refreshed after 4 days). When compounds were tested for their effect on WE stimulation, the incubation of cells with compounds was started and ended simultaneously with WE-incubation.

Setting [5] is: FIG. 18, induced by WE #91, topical once daily day 6-10.
Where [6] appears, read: FIG. 19, induced by WE #43, day 6-10.
[7] abbreviates: FIG. 4, 3D fibroblast culture with WE.

SMILES strings stand for the structures.

Regarding `C[C@]1(c2nc3c(C(N)=O)cccc3[nH]2)CCCN1` [Veliparib, 2-((2R)-2-methylpyrrolidin-2-yl)-1H-benzimidazole-4-carboxamide], the “percentage of live cells in the FACS CD45-gate (macrophages)” value in assay [1] was “dose-dependently increased”. Besides, the “macrophage M2 marker CD206” value in assay [1] is “dose-dependently increased”. In assay [1], the “proinflammatory cytokine IL-1α induced by wound exudate” value is given as “reduced”. Moreover, the “wound exudate-induced IL-1ß secretion” value in assay [2] was “reducing IL-1ß secretion”. Moreover, the entries for the “delayed pig wound healing (time course, clinical score)” value in assay [3] (setting [5]) and in assay [3] (setting [6]) were “improve wound healing” and “only a minor effect”, respectively. In assay [4] (setting [7]), the “formation of fibroblast-derived matrix, optically evaluated by microscopy” value is on record as ““cleaned up” WE-induced fibroblast matrix inhibition”. In addition, the “formation of fibroblast-derived matrix, combination with dexamethasone” value in assay [4] (FIG. 4, 3D fibroblast culture with WE, microscopy) is listed as “superior to each substance alone”. The “formation of fibroblast-derived matrix, veliparib and glucocorticoids combined” value is on record as “enhances the effect of glucocorticoids” in assay [4] (FIG. 5, WE of patient #78 (diabetes, immunosuppression after kidney transplantation)) and “could be enhanced with glucocorticoids, but not vice versa” in assay [4] (FIG. 6, WE of patient #49 (non-diabetic, non-immunosuppressed)). Besides, in assay [4], the “3D fibroblast culture (FDM formation), effect of PARP inhibitors” value is “strong and consistent positive effect”.
For the compound `Cn1ncnc1[C@H]1c2n[nH]c(=O)c3cc(F)cc(c23)N[C@@H]1c1ccc(F)cc1` [Talazoparib], in assay [1], the “percentage of live cells in the FACS CD45-gate (macrophages)” value is “dose-dependently increased”. Also, the “macrophage M2 marker CD206” value in assay [1] is “dose-dependently increased”. Besides, in assay [1], the “proinflammatory cytokine IL-1α induced by wound exudate” value is “reduced”. In addition, the “wound exudate-induced IL-1ß secretion” value in assay [2] was “reducing IL-1ß secretion”. For the same compound, the “delayed pig wound healing (time course, clinical score)” value in assay [3] (setting [5]) is on record as “improve wound healing”; in assay [3] (setting [6]), “improves wound healing”. For the same compound, the “formation of fibroblast-derived matrix, optically evaluated by microscopy” value in assay [4] (setting [7]) is ““cleaned up” WE-induced fibroblast matrix inhibition”; in assay [4] (FIG. 4, 3D fibroblast culture with WE, listed as talazoparib) it was “particularly strong and beneficial”. Moreover, the “3D fibroblast culture (FDM formation), effect of PARP inhibitors” value is “most active of the PARP inhibitors tested in 3D culture” in assay [4]; “strong and consistent positive effect” in assay [4] (listed as talazoparib).

For the origin of these results see patent US11638709B2, “Rucaparib, Talazoparib, Veliparib, Olaparib and AZD 2461 for treating impaired skin wound healing” (AKRIBES BIOMEDICAL GMBH, priority 2017, dated 2023).
